Source: patent publication US4699898A, “Tripeptides affecting immune response” (Imreg, Inc., priority 1985, dated 1987)
Residues, ends and D or L forms follow the SMILES beside them.

Test system: dermal reaction to tetanus toxoid antigen
Conditions: in vivo

N[C@@H](Cc1ccc(O)cc1)C(=O)NCC(=O)NCC(=O)O [TGG, Tyr-Gly-Gly] (H-Tyr-Gly-Gly-OH)
Dermal reaction without antigen: No reaction was observed
